Reference: article PMC9929232, “On-demand male contraception via acute inhibition of soluble adenylyl cyclase” (Nature Communications, 2023)
Values joined by “and” are separate entries in the source; they are usually repeats but may differ in a detail not shown here. Equal entries are not always repeated.

Legend:
mouse sperm = assay: Acrosome reaction assay, mouse sperm, zona pellucidae-evoked; type: cell-based
Protocol: Zonae pellucidae were isolated from female mice superovulated by intraperitoneal injection of 10 I.U. […] 3 days before the experiment. 14 h before oocyte isolation, mice were injected with 10 I.U. pregnant mare’s serum gonadotropin. Mice were sacrificed by cervical dislocation and oviducts were dissected. Cumulus-enclosed oocytes were separated from the oviducts and placed into TYH buffer containing 300 μg/ml hyaluronidase. After 15 min, cumulus-free oocytes were transferred into fresh buffer and washed twice. Zonae pellucidae and oocytes were separated by shear forces generated by expulsion from […] pasteur pipettes. Zona pellucidae were counted, transferred into fresh buffer, and heat-solubilized by incubation for 10 min at 65 °C.
Acrosome reaction was induced by incubating mouse sperm with 50 mouse solubilized zonae pellucidae for 15 min at 37 °C. Human sperm were incubated with 10 μM progesterone for 30 min at 37 °C. […] Samples were air-dried on microscope slides and fixed for 30 minutes in 100% ethanol at room temperature (RT). For acrosome staining, mouse and human sperm were incubated for 30 min in the dark with 5 μg/ml PNA-FITC or 5 μg/ml PSA-FITC, respectively, and counterstained with 2 μg/ml DAPI. After curing, slides were analyzed using a Zeiss LSM 880 Laser Scanning Confocal Microscope; images were captured with two photomultiplier and one Gallium Arsenide Phosphide detector using ZEN Imaging software. For each condition, at least 600 cells were analyzed using ImageJ 1.52.

[1] = biological target: T1, immobilized human sAC protein (Homo sapiens, UniProt Q96PN6); assay: Surface plasmon resonance binding kinetics;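 also: Reference-channel response subtracted from active-channel response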; settings: Fig. 1f
T1 construct: recombinant purified His-tagged sACt protein (50 μg/ml)
T1 sequence (Q96PN6 1-469 limits assumed): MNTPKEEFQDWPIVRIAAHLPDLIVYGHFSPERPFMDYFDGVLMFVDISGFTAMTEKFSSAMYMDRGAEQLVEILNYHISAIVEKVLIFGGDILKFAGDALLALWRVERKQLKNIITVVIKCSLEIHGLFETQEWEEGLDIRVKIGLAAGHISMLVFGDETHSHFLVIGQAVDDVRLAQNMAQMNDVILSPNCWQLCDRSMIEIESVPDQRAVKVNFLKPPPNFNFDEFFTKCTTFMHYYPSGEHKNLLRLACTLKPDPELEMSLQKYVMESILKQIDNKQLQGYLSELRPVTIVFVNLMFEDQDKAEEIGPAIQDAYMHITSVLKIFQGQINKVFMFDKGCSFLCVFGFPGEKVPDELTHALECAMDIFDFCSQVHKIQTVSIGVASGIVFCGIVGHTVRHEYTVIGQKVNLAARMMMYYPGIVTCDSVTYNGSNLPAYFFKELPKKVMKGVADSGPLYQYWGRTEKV
Protocol: Association and dissociation rate constants of sAC inhibitors were obtained with a Biacore 8K instrument (Cytiva) using a parallel kinetics protocol. Series S Sensor NTA chips (Cytiva) were prepared by applying recombinant purified His-tagged sACt protein (50 μg/ml) in PBS-P+ buffer (1 mM KH2PO4, 150 mM NaCl, 6 mM Na2HPO4, 0.05% (w/v) P20 Surfactant). The His-tagged sAC protein was captured via Ni^2+-His-tag chelation and covalently immobilized by amine coupling with a 1:1 mixture of 1-ethyl-3-(3-dimethylaminopropyl) carbodiimide and N-hydroxysuccinimide (active channels). After coupling, remaining reactive groups on the chip’s surface were blocked with 1 M ethanolamine followed by 350 mM EDTA to wash away any free Ni^2+. Following preparation, TBS-P+ running buffer (50 mM Tris, 150 mM NaCl, and 0.05% P20 Surfactant) supplemented with 1% DMSO was flowed over the surface of the chip until a stable baseline was obtained. For each sAC inhibitor, which were dissolved in DMSO and diluted in running buffer, increasing concentrations were injected into parallel channels for 120 s at a flow rate of 50 µl/min followed by running buffer for 600 s to allow for dissociation. All experiments included reference channels; i.e., inhibitor run over parallel channels without immobilized protein. […] Curves were fitted, and kon, KD, and koff values were determined using the Biacore 8K Insight Evaluation Software Version 2.0 (Cytiva) and a 1:1 binding kinetics model.

human sperm [2] = assay: cAMP generation in human sperm in vitro, incl. wash-out by dilution; type: cell-based; settings: 30 minutes
Protocol: Samples of human semen were obtained from healthy volunteers with their prior written consent following a protocol approved by Weill Cornell Medicine’s Institutional Review Board (IRB 21-03023495). […] Semen was incubated for 30 min in a 37 °C incubator to liquefy. […] The tubes were incubated at a tilted angle of 45° at 37 °C for 60 min. Motile sperm were allowed to swim up into the HTF layer; immotile sperm and other cells or tissue debris remain in the ejaculate fraction. Up to 3 ml of the HTF layer was transferred to a fresh tube and washed twice in HTF by centrifugation (700 × g, 20 min). The supernatant was removed after the last centrifugation step and the sperm pellet was resuspended in 1 ml HTF. The purity and vitality of each sample was assessed via light microscopy. Sperm cell numbers were determined using a hemocytometer and adjusted to a concentration of 1 × 10^7 cells/ml.

human sperm [3] = assay: Flagellar beat frequency of tethered human sperm; type: cell-based
Protocol: An inverted dark-field video microscope (IX73; Olympus) with a 10 x objective (mouse sperm) or a 20 x objective (human sperm) (UPLSAPO, NA 0.8; Olympus) was combined with a high-speed camera (ORCA Fusion; Hamamatsu). Dark-field videos were recorded with a frame rate of 200 Hz. The temperature of the heated stage was set to 37 °C (stage top incubator WSKMX; TOKAI HIT). The images were preprocessed with the ImageJ plugin SpermQ Preparator (Gaussian blur with sigma 0.5 px; subtract background method with radius 5 px) and analyzed using the ImageJ plugin SpermQ[57]. The beat frequency was determined from the highest peak in the frequency spectrum of the curvature time course, obtained by Fast Fourier Transform.

[4] = sheet Fig. 2c replicates, 5 μM TDI-10229 or 10 nM TDI-11861 present
[5] = sheet Fig. 2d replicates, 5 min preincubation in 5 μM TDI-10229 or 10 nM TDI-11861, diluted 1:100 into inhibitor-free media

## Nc1nc(Cl)cc(-c2nn(C(F)F)cc2Cc2ccccc2OCCN2CCOC[C@@H]2CO)n1 [TDI-11861]
Mouse sperm
  toxicity to sperm (rescue of acrosome response by cAMP/IBMX): not toxic to sperm
Mouse sperm; Fig. 2g replicates, 5 mM db-cAMP/500 μM IBMX, 5 μM TDI-10229 or 10 nM TDI-11861
  Acrosome reacted (%), basal + db-cAMP/IBMX: 33.6897% and 30.4912% and 38.1667% and 17.5365% and 24% and 40.1452%
Mouse sperm; Fig. 2g replicates, 50 heat-solubilized zona pellucidae, 5 μM TDI-10229 or 10 nM TDI-11861
  Acrosome reacted (%), ZP: 22.9233% and 33% and 26.2439% and 20.6667% and 34.5025% and 32.3333%
Mouse sperm; Fig. 2g replicates, 90 min capacitating media, 5 μM TDI-10229 or 10 nM TDI-11861
  Acrosome reacted (%), basal: 31.9785% and 35% and 27.6378% and 28.974% and 29% and 25%
Mouse sperm; Fig. 2g replicates, zona pellucidae, 5 mM db-cAMP/500 μM IBMX, 5 μM TDI-10229 or 10 nM TDI-11861
  Acrosome reacted (%), ZP + db-cAMP/IBMX: 42.963% and 32.2222% and 37.3475% and 28% and 29.3534% and 43%
[1]; 4 nM, Time 1.8 s
  SPR sensorgram response: 0.8425
[1]; 4 nM, Time 1.9 s
  SPR sensorgram response: 0.8424
[1]; 4 nM, Time 2 s
  SPR sensorgram response: 0.8404
[1]; 12.3 nM, Time 1.8 s
  SPR sensorgram response: 0.7083
[1]; 12.3 nM, Time 1.9 s
  SPR sensorgram response: 0.7083
[1]; 12.3 nM, Time 2 s
  SPR sensorgram response: 0.7083
[1]; 37 nM, Time 1.8 s
  SPR sensorgram response: 0.4389
[1]; 37 nM, Time 1.9 s
  SPR sensorgram response: 0.4389
[1]; 37 nM, Time 2 s
  SPR sensorgram response: 0.4389
[1]; 111 nM, Time 1.8 s
  SPR sensorgram response: 1.6715
[1]; 111 nM, Time 1.9 s
  SPR sensorgram response: 1.6715
[1]; 111 nM, Time 2 s
  SPR sensorgram response: 1.5453
[1]; 333 nM, Time 1.8 s
  SPR sensorgram response: 3.2073
[1]; 333 nM, Time 1.9 s
  SPR sensorgram response: 3.4899
[1]; 333 nM, Time 2 s
  SPR sensorgram response: 3.8103
Human sperm [2]; [4]
  cAMP, capacitation media: 0.4536 pmol/10^6 sperm and 0.2982 pmol/10^6 sperm and 0.3279 pmol/10^6 sperm and 0.1875 pmol/10^6 sperm and 0.4476 pmol/10^6 sperm and 0.4575 pmol/10^6 sperm and 0.7152 pmol/10^6 sperm and 0.6672 pmol/10^6 sperm and 0.4645 pmol/10^6 sperm and 0.4351 pmol/10^6 sperm and 0.0606 pmol/10^6 sperm and 0.2667 pmol/10^6 sperm
  cAMP, non-capacitation media: 0.6403 pmol/10^6 sperm and 0.8029 pmol/10^6 sperm and 0.2251 pmol/10^6 sperm and 0.2037 pmol/10^6 sperm and 0.6722 pmol/10^6 sperm and 0.7415 pmol/10^6 sperm and 0.6566 pmol/10^6 sperm and 0.7427 pmol/10^6 sperm and 0.4253 pmol/10^6 sperm and 0.8706 pmol/10^6 sperm and 0.1092 pmol/10^6 sperm and 0.7462 pmol/10^6 sperm
Human sperm [2]; [5]
  cAMP, capacitation media: 0.7435 pmol/10^6 sperm and 0.3279 pmol/10^6 sperm and 0.4575 pmol/10^6 sperm and 0.7152 pmol/10^6 sperm and 0.6672 pmol/10^6 sperm and 0.4645 pmol/10^6 sperm and 0.4351 pmol/10^6 sperm and 0.0606 pmol/10^6 sperm and 0.2667 pmol/10^6 sperm and 0.2982 pmol/10^6 sperm
  cAMP, non-capacitation media: 0.059 pmol/10^6 sperm and 0.2015 pmol/10^6 sperm and 0.452 pmol/10^6 sperm and 0.1712 pmol/10^6 sperm and 1.016 pmol/10^6 sperm and 0.658 pmol/10^6 sperm and 0.9025 pmol/10^6 sperm and 0.216 pmol/10^6 sperm and 0.84 pmol/10^6 sperm and 0.1317 pmol/10^6 sperm
Human sperm [3]; distal 5 µm of flagellum, 5 μM TDI-10229 or 10 nM TDI-11861, mean ± SEM
  Beat frequency, Basal: 11.4 ± 1.3 Hz
Human sperm [3]; distal 5 µm, 25 mM NaHCO3, 5 μM TDI-10229 or 10 nM TDI-11861, mean ± SEM
  Beat frequency, + HCO3-: 11.0 ± 0.8 Hz
